Consider two compounds from patent US10888555B2 (CONARIS RESEARCH INSTITUTE AG, priority 2013, dated 2021).

Entries after “also recorded” stand apart in the source; their conditions may differ.

For data set [1] the following is noted: cited from earlier work.
In data set [2] the test system is C57BL/6J mice. Description: Acute tunicamycin-induced NAFLD/NASH model: histological liver damage score. It counts as in vivo, mouse. The conditions noted are these: 60 mg/kg/d in drinking water, 3 mice with and 3 without NAM, 48 h after tunicamycin 2 μg/g i.p., FIG. 4. The method, then:
In order to extend the findings of von Schönfels et al. 2014 (Liver Int. doi: 10.1111/liv.12476) with NA in a chronic model of NAFLD, the effect of NAM was investigted in an acute murine model of NASH (Lee et al. 2012, Toxicol. Lett. 211:29). C57BL/6J mice (n=6; age: 12-13 weeks) were injected intraperitoneally with tunicamycin (TM; 2 μg/g body weight). After 48 h, the mice were sacrificed and liver tissue was collected for histological analysis of signs of NAFLD/NASH as described previously (Lee et al. 2012, Toxicol. Lett. 211:29). NAM was administered to three of the six mice in the drinking water from 2 days before the TM challenge until the end of the experiment. NAM was administered at 0.4 g/l, corresponding to approximately 60 mg/kg/d (assumptions from general averages: body weight of a mouse: 20 g; water intake: 3 mL/mouse/d; 3 mL with a concentration of 0.4 g/L contained 1.2 mg NAM, resulting in a dose of approximately 60 mg/kg/d).
Paraffin-embedded liver tissue sections (3 μm) from mice after TM challenge were subjected to hematoxylin/eosin staining and scored in a blinded manner. Hepatic steatosis, hepatocyte ballooning and inflammation were determined in a scoring system modified from Brunt 2001 (Semin. Liver Dis. 21:3). The stage scores were based on liver fibrosis. The 0-3 grading includes: 0, none; 1, mild; 2, moderate; and 3, severe.

In the case of `NC(=O)c1cccnc1` [NAM, nicotinamide], the “recommended maximum nutritional doses” value in data set [1] (adults, SCF/CS/NUT/UPPLEV/39) was “up to 900 mg/d”. Besides, the “tunicamycin-induced NAFLD/NASH liver damage score” value in data set [2] was “small, but significant reduction; also recorded: moderate, but significant protection”.

Consider `O=C(O)c1cccnc1` [nicotinic acid], for which the “doses above which side effects including flush, tachycardia, blood pressure dysregulation and diarrhea have to be anticipated” value in data set [1] (Carlson 2005, German Federal Institute for Risk Assessment) is 100 to 300 mg/day. In data set [1] (adults, European Scientific Committee on Food), the “tolerable upper intake level without anticipated side effects” value was 10 mg/day.
